Test results published in PMC3871601, “Potential Cooperations between Odorant-Binding Proteins of the Scarab Beetle Holotrichia oblita Faldermann (Coleoptera: Scarabaeidae)” (PLoS ONE, 2013).
pIC50, pKd, pKi: −log10 of the molar value. Where two headings read alike, the source gives them in different places.

Experiments:
HoblOBP3 [1] = molecular target: T1, HoblOBP3 (Holotrichia oblita, UniProt G9BWQ7); assay: biochemical; type: binding
Description: (§1) N-phenyl-1-naphthylamine (1-NPN) was selected as a probe to measure the affinity of the 1-NPN fluorescent ligand to proteins. A 1-cm light path quartz cuvette was used, and the fluorescence spectra were recorded on a Lengguang 970 CRT spectrofluorimeter (Shanghai Jingmi, China) at room temperature in a right angle configuration. The parameter selection was such that the slit widths for both excitation and emission were 10 nm. 1-NPN was excited at 337 nm and the emission spectra were recorded between 350 and 550 nm. Spectra were recorded using high-speed scanning.
(§2) The 2 µM protein solution was dissolved in 50 mM Tris-HCl buffer with pH 7.4, and the ligands were dissolved in chromatographically pure methanol as a 1 mM stock solution. 1-NPN was dissolved in chromatographically pure methanol as a 1 mM stock solution.
(§3) To determine the dissociation constants, the intensity values corresponding to the maximum fluorescence emission were plotted against free ligand concentrations. Assuming that the protein was 100% active and that the stoichiometric ratio between the protein and ligand was 1:1 at saturation, the bound ligand was determined from the fluorescence intensity values. The curves were then linearized using Scatchard plots. The K1-NPN values were estimated using GraphPad Prism 5 Software by nonlinear regression for a unique binding site. The dissociation constants of the competitors (Ki) were calculated from the corresponding IC50 values using the following equation: Ki = [IC50]/1+[1-NPN]/K1-NPN. […] [1-NPN] represented the free concentration of 1-NPN, and K1-NPN represented the dissociation constant of the complex protein/1-NPN [76].

HoblOBP4 [2] = molecular target: T2, HoblOBP4 (Holotrichia oblita, UniProt G9BWQ8); assay: biochemical; type: binding; conditions: for Affinity (in words): HoblOBP4 alone
T2 sequence (G9BWQ8 entry or part of it): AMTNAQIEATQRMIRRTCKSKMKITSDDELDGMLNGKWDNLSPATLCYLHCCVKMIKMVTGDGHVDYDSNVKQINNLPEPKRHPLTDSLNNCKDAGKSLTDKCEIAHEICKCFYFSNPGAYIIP
Description: as §1, §2, §3

[3] = test system: HoblOBP1 and HoblOBP2 mixtures; assay: Competitive binding assay with binary protein mixture OBP1-OBP2; set-up: species or system Holotrichia oblita; conditions: HoblOBP1 and HoblOBP2 equimolar mixture and 1-NPN 2 µM, ligand 4–40 µM; compared to either protein alone
Description: (§4) It is well known that the concentration of OBPs (also likely CSPs) in the sensillum lymph of the insect is extremely high (reportedly 10 mM). A hypothesis has been proposed that OBPs (or CSPs) homodimers or heterodimers might form. Thus, all binary potential intersections with four HoblOBPs and two HoblCSPs were tested in competitive binding assays to determine the existence of dimers. These experiments assumed that the protein was 100% active, a stoichiometric ratio between the protein and ligand was 1:1 at saturation and the two proteins were present in equimolar amounts. The binding curves and Scatchard plots of OBP3 and OBP4 mixture or CSP1 and CSP2 mixture were consistent with the functions of the individual proteins. However, the binding curve of the OBP2 and OBP4 mixture or OBP1 and OBP2 mixture presented a different tendency from those obtained with the individual proteins. […] Thus, we speculated that the decreased binding velocity was the main cause underlying this phenomenon. […] Such binding of the OBP2 and OBP4 mixture or OBP1 and OBP2 mixture in H. oblita was consistent with the OBP1 and OBP4 mixture in A. gambiae. In particular, some experiments also indicated interactions between OBP1 and OBP4 in A. gambiae. Thus, the hypothesis on a potential interaction between OBP2 and OBP4 (or OBP1 and OBP2) in H. oblita was proposed.
(§5) Figure 8 Competitive binding curves of representative ligands to binary protein mixtures OBP2-OBP4 and OBP1-OBP2 in H. oblita. The chemical structures of the ligands are shown on the right. A mixture of the proteins (equimolar amounts) and 1-NPN with both concentration of 2 µM in Tris-buffer was titrated with 1 mM solution of each competing ligand to final concentrations of 4–40 µM.
(§6) The 2 µM protein solution was dissolved in 50 mM Tris-HCl buffer with pH 7.4, and the ligands were dissolved in chromatographically pure methanol as a 1 mM stock solution. 1-NPN was dissolved in chromatographically pure methanol as a 1 mM stock solution. The protein solution was titrated to measure the protein’s affinity for the probe by adding aliquots of 1-NPN stock solution to final concentrations of 2 to 20µM.

HoblOBP2 = test system: HoblOBP2; set-up: method as in PMID 21852709; conditions: HoblOBP2 alone; ref [13]; cited from earlier work
HoblOBP1 = test system: HoblOBP1; set-up: method as in PMID 21852709; conditions: HoblOBP1 alone; ref [13]; cited from earlier work
HoblOBP3 [4] = molecular target: T1, HoblOBP3; assay: Binding curve of 1-NPN and Scatchard plot, HoblOBP3; conditions: HoblOBP3 2 µM in Tris-buffer, 1-NPN 2–20 µM; read-out: Dissociation constant of 1-NPN
Description: as §1, with “scanning. Several types of compounds purchased from Sigma-Aldrich (Chemie Gmbh, Steinheim, Germany) were identified in the binding assays, and their purities were > 97% (Table 1). […]” for “scanning.”
(§7) To determine the dissociation constants, the intensity values corresponding to the maximum fluorescence emission were plotted against free ligand concentrations. Assuming that the protein was 100% active and that the stoichiometric ratio between the protein and ligand was 1:1 at saturation, the bound ligand was determined from the fluorescence intensity values. […] The dissociation constants of the competitors (Ki) were calculated from the corresponding IC50 values using the following equation: Ki = [IC50]/1+[1-NPN]/K1-NPN. […]

HoblOBP4 [5] = molecular target: T2, HoblOBP4; assay: Binding curve of 1-NPN and Scatchard plot, HoblOBP4; conditions: HoblOBP4 2 µM in Tris-buffer, 1-NPN 2–20 µM; read-out: Dissociation constant of 1-NPN
Description: as §1, with “scanning. Several types of compounds purchased from Sigma-Aldrich (Chemie Gmbh, Steinheim, Germany) were identified in the binding assays, and their purities were > 97% (Table 1). […]” for “scanning.”
as §7

[6] = test system: HoblOBP2 and HoblOBP4 mixtures; assay: Competitive binding assay with binary protein mixture OBP2-OBP4; set-up: species or system Holotrichia oblita; conditions: HoblOBP2 and HoblOBP4 equimolar mixture and 1-NPN 2 µM, ligand 4–40 µM
Description: as §4, §5, §6

[7] = HoblOBP3, dash = IC50 exceeded 50 µM, read-out: IC50 (dash)
[8] = HoblOBP3, dash = ligand whose IC50 exceeded 50 µM, Ki not given, read-out: Ki (dash)
[9] = pH 7.4, HoblOBP3, at the ligand concentration 24 µM, protein and 1-NPN both 2 µM, read-out: Int (fluorescence intensity as percent of the initial fluorescence)
[10] = HoblOBP4, dash = IC50 exceeded 50 µM, read-out: IC50 (dash)
[11] = HoblOBP4, dash = ligand whose IC50 exceeded 50 µM, Ki not given, read-out: Ki (dash)
[12] = pH 7.4, HoblOBP4, at the ligand concentration 24 µM, protein and 1-NPN both 2 µM, read-out: Int (fluorescence intensity as percent of the initial fluorescence)
[13] = pH 7.4, read-out: Int (fluorescence intensity as percent of the initial fluorescence)

T1 sequence (G9BWQ7 entry or part of it): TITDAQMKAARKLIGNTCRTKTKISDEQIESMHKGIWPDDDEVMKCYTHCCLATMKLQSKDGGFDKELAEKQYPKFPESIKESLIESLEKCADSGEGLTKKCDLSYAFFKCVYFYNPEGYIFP

| pIC50 (HoblOBP3 [1]; [7]) | pKi (HoblOBP3 [1]; [8]) | pIC50 (HoblOBP4 [2]; [10]) | pKi (HoblOBP4 [2]; [11]) | SMILES | activity at 24 µM (HoblOBP3 [1]; [9]) | activity at 24 µM (HoblOBP4 [2]; [12]) | Affinity (in words) [3] | Affinity (in words) (HoblOBP2) | Affinity (in words) (HoblOBP1) | pKd (HoblOBP3 [4]) | pKd (HoblOBP4 [5]) | pIC50 (HoblOBP3 [1]) | pKi (HoblOBP3 [1]) | activity at 24 µM (HoblOBP3 [1]; [13]) | pIC50 (HoblOBP4 [2]) | pKi (HoblOBP4 [2]) | Affinity (in words) (HoblOBP4 [2]) | activity at 24 µM (HoblOBP4 [2]; [13]) | Affinity (in words) [6] |
| --- | --- | --- | --- | --- | --- | --- | --- | --- | --- | --- | --- | --- | --- | --- | --- | --- | --- | --- | --- |
| < 4.30 | < 4.30 | < 4.30 | < 4.30 | CCCCCCC=O [1-Heptanal] | 65% | 64% | enhanced affinity | low-afﬁnity or non-afﬁnity | low-afﬁnity or non-afﬁnity |  |  |  |  |  |  |  |  |  |  |
|  |  |  |  | c1ccc(Nc2cccc3ccccc23)cc1 [1-NPN, N-phenyl-1-naphthylamine] |  |  |  |  |  | 5.73 | 5.56 |  |  |  |  |  |  |  |  |
|  |  |  |  | O=C/C=C/c1ccccc1 [Cinnamaldehyde] |  |  |  | low-afﬁnity or non-afﬁnity |  |  |  | 4.34 | 4.52 | 64% | 5.05 | 5.18 | good afﬁnity | 36% | good affinity |
|  |  |  |  | C=CCc1ccc(O)c(OC)c1 [Eugenol] |  |  |  | low-afﬁnity or non-afﬁnity |  |  |  | < 4.30 | < 4.30 | 97% | < 4.30 | < 4.30 | no afﬁnity | 57% | good affinity |
|  |  |  |  | C=C[C@](C)(O)CCC=C(C)C [R-(-)-Linalool] |  |  | enhanced affinity | low-afﬁnity or non-afﬁnity | low-afﬁnity or non-afﬁnity |  |  | < 4.30 | < 4.30 | 73% | 4.70 | 4.83 |  | 46% |  |
| < 4.30 | < 4.30 | < 4.30 | < 4.30 | CC1=C(/C=C/C(C)=C/C=C/C(C)=C/CO)C(C)(C)CCC1 [Retinol] |  |  |  | low-afﬁnity or non-afﬁnity |  |  |  |  |  |  |  |  | no afﬁnity |  | good affinity |
|  |  |  |  | CCC/C=C/CO [trans-2-Hexenol] | 82% | 51% | enhanced affinity | low-afﬁnity or non-afﬁnity | low-afﬁnity or non-afﬁnity |  |  | < 4.30 | < 4.30 |  | 4.62 | 4.75 |  |  |  |
|  |  |  |  | CC1=CC[C@@H](C(C)(C)O)CC1 [α-Terpineol] |  |  | enhanced affinity | low-afﬁnity or non-afﬁnity | low-afﬁnity or non-afﬁnity |  |  | < 4.30 | < 4.30 | 71% | 4.45 | 4.58 |  | 53% |  |
|  |  |  |  | CC(=O)/C=C/C1=C(C)CCCC1(C)C [β-Ionone] |  |  |  | good afﬁnity |  |  |  | 5.10 | 5.28 | 36% | 4.82 | 4.96 | good afﬁnity | 42% | enhanced affinity |
